Our source for the Kd values is doi:10.1101/2023.12.22.573011v1 (biorxiv, 2023).

The target of the test is full-length TDP-43 (TDP-43) (Homo sapiens, UniProt Q13148). In words: isothermal titration calorimetry. The test is classed as binding. (In general: In ITC the heat of successive injections is recorded.)

Molecules are shown by their SMILES.

full-length TDP-43 (TDP-43), sequence (Q13148 whole entry): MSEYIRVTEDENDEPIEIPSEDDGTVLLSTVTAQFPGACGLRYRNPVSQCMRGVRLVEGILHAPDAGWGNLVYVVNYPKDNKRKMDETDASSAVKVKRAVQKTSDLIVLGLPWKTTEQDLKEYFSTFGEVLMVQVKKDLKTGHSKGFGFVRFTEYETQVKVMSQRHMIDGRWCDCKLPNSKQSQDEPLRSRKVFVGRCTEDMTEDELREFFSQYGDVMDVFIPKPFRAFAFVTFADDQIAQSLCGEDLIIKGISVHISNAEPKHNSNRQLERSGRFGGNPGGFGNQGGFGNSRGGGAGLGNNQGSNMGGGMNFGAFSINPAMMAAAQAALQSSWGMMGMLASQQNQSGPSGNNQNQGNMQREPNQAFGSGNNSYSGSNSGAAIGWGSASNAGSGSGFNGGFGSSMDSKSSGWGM

What is called Kd is the free concentration of one partner at which half of the binding sites on the other are occupied at equilibrium, for simple one-to-one binding. High values mean a looser complex, low ones a tighter complex. With `O=C(O[C@@H]1Cc2c(O)cc(O)cc2O[C@@H]1c1cc(O)c(O)c(O)c1)c1cc(O)c(O)c(O)c1` [epigallocatechin gallate], binding was characterised by a dissociation constant (Kd) of 7.8 µM.
